Test results published in patent publication US20250243189A1, “HERBICIDAL IMIDAZOLE-CONTAINING COMPOUNDS” (SYNGENTA CROP PROTECTION AG, priority 2022, published 2025).

Assays:
Type in all cases: in vivo
Conditions in all cases: 250 g/ha, evaluated after 13 days, five-point scale
AMAPA [1] = test: Pre-emergence herbicidal glasshouse test
Experimental: [Worded in the source for another organism; this organism is reported under the same test.] (§1) Seeds of a variety of test species are sown in standard soil in pots Amaranthus retoflexus (AMARE), Echinochloa crus-galli (ECHCG), Setaria faberi (SETFA)). After cultivation for one day (pre-emergence) or after 8 days cultivation (post-emergence) under controlled conditions in a glasshouse (at 24/16° C., day/night; 14 hours light; 65% humidity), the plants are sprayed with an aqueous spray solution derived from the formulation of the technical active ingredient in acetone/water (50:50) solution containing 0.5% Tween 20 (polyoxyethelyene sorbitan monolaurate, CAS RN 9005-64-5). Compounds are applied at 250 g/ha unless otherwise stated. The test plants are then grown in a glasshouse under controlled conditions in a glasshouse (at 24/16° C., day/night; 14 hours light; 65% humidity) and watered twice daily. After 13 days for pre and post-emergence, the test is evaluated for the percentage damage caused to the plant. The biological activities are shown in the following table on a five-point scale (5=81-100%; 4=61-80%; 3=41-60%; 2=21-40%; 1=0-20%).

IPOHE [2] = test: Pre-emergence herbicidal glasshouse test
Experimental: as §1

[3] = test system: Echinochloa crus-galli (ECHCG); test: Pre-emergence herbicidal glasshouse test
Experimental: as §1

[4] = test system: Amaranthus retoflexus (AMARE); test: Pre-emergence herbicidal glasshouse test
Experimental: as §1

AMAPA [5] = test: Post-emergence herbicidal glasshouse test
Experimental: [Worded in the source for another organism; this organism is reported under the same test.] as §1

IPOHE [6] = test: Post-emergence herbicidal glasshouse test
Experimental: as §1

[7] = test system: Echinochloa crus-galli (ECHCG); test: Post-emergence herbicidal glasshouse test
Experimental: as §1

[8] = test system: Amaranthus retoflexus (AMARE); test: Post-emergence herbicidal glasshouse test
Experimental: as §1

SMILES | percentage damage caused to the plant, AMAPA (AMAPA [1]) | percentage damage caused to the plant, IPOHE (IPOHE [2]) | percentage damage caused to the plant, ECHCG [3] | percentage damage caused to the plant, AMARE [4] | percentage damage caused to the plant, AMAPA (AMAPA [5]) | percentage damage caused to the plant, IPOHE (IPOHE [6]) | percentage damage caused to the plant, ECHCG [7] | percentage damage caused to the plant, AMARE [8]
Fc1ccc(Cn2cc(C(F)(F)F)nc2-c2ccc(Cl)s2)nc1 [Compound 1.050] | 5 (5=81-100%) | 5 (5=81-100%) | 5 (5=81-100%) | 5 (5=81-100%) | 4 (4=61-80%) | 4 (4=61-80%) | 4 (4=61-80%) | 4 (4=61-80%)
Fc1ccc(-c2nc(C(F)(F)F)cn2Cc2ncc(Cl)cn2)s1 [Compound 1.038] | 5 (5=81-100%) | 5 (5=81-100%) | 5 (5=81-100%) | 5 (5=81-100%) | 4 (4=61-80%) | 4 (4=61-80%) | 5 (5=81-100%) | 5 (5=81-100%)
FC(F)(F)c1cn(Cc2ncc(Cl)cn2)c(-c2cscn2)n1 [Compound 1.023] | 1 (1=0-20%) | 1 (1=0-20%) | 1 (1=0-20%) |  | 1 (1=0-20%) | 2 (2=21-40%) | 1 (1=0-20%) | 1 (1=0-20%)
FC(F)c1cn(Cc2ncc(Cl)cn2)c(-c2cnc(Cl)s2)n1 [Compound 1.071, 2-chloro-5-[1-[(5-chloropyrimidin-2-yl)methyl]-4-(difluoromethyl)imidazol-2-yl]thiazole] | 5 (5=81-100%) | 5 (5=81-100%) | 4 (4=61-80%) | 5 (5=81-100%) | 4 (4=61-80%) | 2 (2=21-40%) | 4 (4=61-80%) | 5 (5=81-100%)
FC(F)(F)c1cn(Cc2ncc(Cl)cn2)c(-c2scnc2Cl)n1 [Compound 1.045] | 5 (5=81-100%) | 5 (5=81-100%) | 1 (1=0-20%) | 5 (5=81-100%) | 4 (4=61-80%) | 4 (4=61-80%) | 2 (2=21-40%) | 4 (4=61-80%)
Cc1nnsc1-c1nc(C(F)(F)F)cn1Cc1ncc(Cl)cn1 [Compound 1.007] | 5 (5=81-100%) | 5 (5=81-100%) | 4 (4=61-80%) | 5 (5=81-100%) | 4 (4=61-80%) | 4 (4=61-80%) | 2 (2=21-40%) | 5 (5=81-100%)
CS(=O)(=O)c1ccc(-c2nc(C(F)(F)F)cn2Cc2ncc(Cl)cn2)s1 [Compound 1.003] | 5 (5=81-100%) | 5 (5=81-100%) | 5 (5=81-100%) | 5 (5=81-100%) | 4 (4=61-80%) | 4 (4=61-80%) | 5 (5=81-100%) | 4 (4=61-80%)
Cc1nc(-c2nc(C(F)(F)F)cn2Cc2ncc(Cl)cn2)co1 [Compound 1.018] |  | 1 (1=0-20%) | 1 (1=0-20%) | 2 (2=21-40%) | 1 (1=0-20%) | 2 (2=21-40%) | 1 (1=0-20%) | 2 (2=21-40%)
FC(F)Oc1cccc(Cn2cc(C(F)(F)F)nc2-c2ccc(Cl)s2)n1 [Compound 1.048] | 1 (1=0-20%) |  | 1 (1=0-20%) | 1 (1=0-20%) | 1 (1=0-20%) | 1 (1=0-20%) | 1 (1=0-20%) | 1 (1=0-20%)
